Measured values reported in patent publication US9169247B2, “Tetrahydro-beta-carboline derivatives, synthesis and use thereof” (Southern Research Institute, priority 2009, dated 2015).
“Also recorded” adds a separate entry of the source. Where two headings read alike, the source gives them in different places.

Key:
SW1116 = test: Growth assay (Cell Titer Glo); assay type: cell-based; conditions: Homo sapiens, SW 1116; SW1116 colon; 72 h
Method: (§1) Compounds 2a-h were tested for tumor cell growth inhibitory activity using the human breast MDA-MB-231 and ZR75-1 tumor cell lines and the colon CACO-2, SW-1116, and HT-29 tumor cell lines.
(§2) All human tumor cell lines were obtained from ATCC and grown under standard cell culture conditions at 37° C. in a humidified atmosphere with 5% CO2. Cells were grown in RPMI 1640 supplemented with 5% fetal bovine serum 2 mM glutamine, 100 units/ml penicillin, 100 units/ml streptomycin, and 0.25 μg/ml amphotericin. Cells were harvested at 70 to 90% confluence with trypsin/EDTA and used immediately Cell count and viability was determined by Trypan blue staining followed by hemocytometry. Only cultures displaying >95% cell viability were used for experiments. HMEC were grown according to the specifications from the supplier (Lonzo).
(§3) Tissue culture microtiter 96-well plates were seeded with cells at a density of 5,000 cells/well. The plates were incubated for 18-24 hours prior to any treatment. All test compounds were solubilized in 100% DMSO and diluted with media to obtain a final DMSO concentration of 0.1%. Cell viability was measured 72 hours after treatment by the Cell Titer Glo Assay (Promega), which is a luminescent assay that is an indicator of live cells as a function of metabolic activity and ATP content. The assay was performed according to manufacturer's specifications. Luminescence was measured by a Perkin Elmer Victor® multi-label plate reader.^6
(§4) Dose response curves were analyzed using Prism™ 4 software (GraphPad) to calculate IC50 values using a four parameter logistic equation.

ZR75-1 = test: Growth assay (Cell Titer Glo); assay type: cell-based; conditions: Homo sapiens, ZR-75-1; ZR75-1 breast; 72 h
Method: as §1, §2, §3, §4

CACO-2 = test: Growth assay (Cell Titer Glo); assay type: cell-based; conditions: Homo sapiens; CACO-2 colon; 72 h
Method: as §1, §2, §3, §4

cGMP phosphodiesterase = cGMP phosphodiesterase activity in whole cell lysates (fluorescence polarization); assay type: biochemical, human; conditions: lysates from MDA-MB-231 cells treated for 18 hours; FIG. 2
Method: FIG. 2 illustrates cGMP phosphodiesterase inhibitory activity of compound 2f. Whole cell lysates from human MDA-MB-231 breast tumor cells treated for 18 hours with compound 2f were assayed for cGMP phosphodiesterase activity using a fluorescence polarization assay (Molecular Devices Inc).

HT-29 = test: Growth assay (Cell Titer Glo); assay type: cell-based, human; conditions: HT-29 colon
Method: as §1, §2, §3, §4

[1] = system: human Caki-1 renal tumor cell line; test: Growth assay (Cell Titer Glo); assay type: cell-based
Method: (§5) FIGS. 3A-B illustrate the anticancer activity of compound 2j. […] The cells with treated for 72 hours prior to measuring cell viability using the Cell Titer Glo assay (Promega Corp.). […] Tumor bearing mice were treated at a dose of 10 mg/kg one time per day for 22 days.
as §2, with “HMEC were grown according to the specifications from the supplier (Lonzo).” left out
Tissue culture microtiter 96-well plates were seeded with cells at a density of 5,000 cells/well. […] Cell viability was measured 72 hours after treatment by the Cell Titer Glo Assay (Promega), which is a luminescent assay that is an indicator of live cells as a function of metabolic activity and ATP content. […] Luminescence was measured by a Perkin Elmer Victor® multi-label plate reader.^6
as §4

[2] = system: normal human mammary epithelial cells (HMEC); test: Cytotoxicity to normal cells (growth assay); assay type: cell-based; conditions: up to a concentration of 10 μM
Method: as §2, §3

HCT-15 = test: Growth assay (Cell Titer Glo); assay type: cell-based; conditions: Homo sapiens; HCT-15, colon
Procedure, shortened: (§6)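 IC50 values derive from a four-parameter logistic fit of luminescent viability data collected 72 h after dosing. Plating density was 5,000 cells/well in RPMI 1640 containing 5% FBS, with 0.1% final DMSO.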

PC-3 = test: Growth assay (Cell Titer Glo); assay type: cell-based; conditions: Homo sapiens; PC-3, prostate
Procedure, shortened: as §6

OVCAR-8 = test: Growth assay (Cell Titer Glo); assay type: cell-based; conditions: Homo sapiens; OVCAR-8, ovarian
Procedure, shortened: as §6

SR = test: Growth assay (Cell Titer Glo); assay type: cell-based; conditions: Homo sapiens, hematopoietic
Procedure, shortened: as §6

NCI-H226 = test: Growth assay (Cell Titer Glo); assay type: cell-based; conditions: Homo sapiens; NCI-H226, lung
Procedure, shortened: as §6

BT-549 = test: Growth assay (Cell Titer Glo); assay type: cell-based; conditions: Homo sapiens; BT-549, breast
Procedure, shortened: as §6

A549 = test: Growth assay (Cell Titer Glo); assay type: cell-based; conditions: Homo sapiens; A549, lung
Procedure, shortened: as §6

HOP-92 = test: Growth assay (Cell Titer Glo); assay type: cell-based; conditions: Homo sapiens; HOP-92, lung
Procedure, shortened: as §6

OVCAR-3 = test: Growth assay (Cell Titer Glo); assay type: cell-based; conditions: Homo sapiens; OVCAR-3, ovarian
Procedure, shortened: as §6

Hs578T = test: Growth assay (Cell Titer Glo); assay type: cell-based; conditions: Homo sapiens, Hs-578T, breast
Procedure, shortened: as §6

SK-MEL-5 = test: Growth assay (Cell Titer Glo); assay type: cell-based; conditions: Homo sapiens; SK-MEL-5, melanoma
Procedure, shortened: as §6

MDA-MB-435 = test: Growth assay (Cell Titer Glo); assay type: cell-based; conditions: Homo sapiens; MDA-MB-435, melanoma
Procedure, shortened: as §6

NCI-H522 = test: Growth assay (Cell Titer Glo); assay type: cell-based; conditions: Homo sapiens; NCI-H522, lung
Procedure, shortened: as §6

K562 = test: Growth assay (Cell Titer Glo); assay type: cell-based; conditions: Homo sapiens; K562, hematopoietic
Procedure, shortened: as §6

SK-MEL-2 = test: Growth assay (Cell Titer Glo); assay type: cell-based; conditions: Homo sapiens; SK-MEL-2, melanoma
Procedure, shortened: as §6

SF-295 = test: Growth assay (Cell Titer Glo); assay type: cell-based; conditions: Homo sapiens; SF-295, CNS
Procedure, shortened: as §6

MDA-MB-468 = test: Growth assay (Cell Titer Glo); assay type: cell-based; conditions: Homo sapiens; MDA-MB-468, breast
Procedure, shortened: as §6

COLO205 = test: Growth assay (Cell Titer Glo); assay type: cell-based; conditions: Homo sapiens, COLO 205; COLO205, colon
Procedure, shortened: as §6

HCC-2998 = test: Growth assay (Cell Titer Glo); assay type: cell-based; conditions: Homo sapiens; HCC-2998, colon
Procedure, shortened: as §6

A498 = test: Growth assay (Cell Titer Glo); assay type: cell-based; conditions: Homo sapiens; A498, renal
Procedure, shortened: as §6

[3] = system: human Caki-1 renal tumor mouse xenograft; test: Caki-1 renal tumor mouse xenograft model; assay type: in vivo; conditions: 10 mg/kg one time per day for 22 days; FIG. 3B
Method: as §5

In the case of `COC(=O)[C@H]1Cc2c([nH]c3ccccc23)[C@H](c2cc(OC)ccc2OC)N1C(=O)CCl` [Compound 2f, Methyl (1S,3R)-1-(2,5-dimethoxyphenyl)-2-(2-chloroacetyl)-2,3,4,9-tetrahydro-1H-β-carboline-3-carboxylate], the IC50 (SW1116) is reported as 4.4 µM, the IC50 (ZR75-1) is reported as 1.2 µM and the IC50 (CACO-2) is reported as 0.01 µM. The “cGMP PDE activity in lysates” value (cGMP phosphodiesterase) was “selectively inhibited”, the melting point was 232 °C and the IC50 (HT-29; 72 h) was 0.452 µM. The IC50 (HT-29; Homo sapiens, HT-29, 72 h) was 0.45 µM, the IC50 ([1]; CAKI-1, CAKI-1, renal, read-out: IC50) was < 0.006 µM and the “cytotoxicity to normal human mammary epithelial cells (HMEC)” value [2] was “insensitive; also recorded: no cytotoxicity”. For the same compound, the IC50 (HCT-15) was > 10 µM, the IC50 (PC-3) was 0.192 µM and the IC50 (OVCAR-8) was 0.068 µM. For the same compound, the IC50 (SR) was < 0.007 µM.
`COC(=O)[C@H]1Cc2c([nH]c3ccccc23)[C@H](c2ccc(Cl)cc2Cl)N1C(=O)CCl` [Compound 2j, (1S,3R) Methyl 1-(2,4-dichlorophenyl)-2-(2-chloroacetyl)-2,3,4,9-tetrahydro-1H-β-carboline-3-carboxylate] gave a melting point of 106 to 109 °C, an IC50 (HT-29; Homo sapiens, HT-29, 72 h) of 0.65 µM and an IC50 ([1]; CAKI-1, 72 h, FIG. 3A legend, read-out: IC50 value, tumor cell growth) of 0.0023 µM. The IC50 (NCI-H226) was 1.41 µM, the IC50 (BT-549) was 0.76 µM and the IC50 (HCT-15) was > 3 µM. For the same compound, the IC50 (A549) was > 3 µM, the IC50 (HOP-92) was 0.02 µM and the IC50 (OVCAR-3) was 0.13 µM. For the same compound, the IC50 (PC-3) was 0.34 µM, the IC50 (Hs578T) was 0.22 µM and the IC50 (SK-MEL-5) was > 3 µM. The IC50 (MDA-MB-435) was 0.64 µM, the IC50 (OVCAR-8) was 0.05 µM and the IC50 (NCI-H522) was 0.016 µM. The IC50 (SR) was 0.008 µM, the IC50 (K562) was 1.25 µM and the IC50 (SK-MEL-2) was 0.92 µM. For the same compound, the IC50 (SF-295) was 0.07 µM, the IC50 (MDA-MB-468) was 0.13 µM and the IC50 (COLO205) was 1.44 µM. For the same compound, the IC50 (HCC-2998) was 2.26 µM, the IC50 (A498) was 0.096 µM and the “in vivo tumor growth” value [3] was “strongly suppressed tumor growth; also recorded: strong in vivo antitumor activity”.
